Data as given in patent publication US11591306B2, “Vitamin E-based amphipathic compound, and use thereof” (Industry-University Cooperation Foundation Hanyang …, priority 2017, dated 2023).
Values joined by “and” are separate entries in the source; they are usually repeats but may differ in a detail not shown here. Equal entries are not always repeated. “Also recorded” adds a separate entry of the source.

Tests used:
[1] = biological target: T1, MelBSt (melibiose permease) (Salmonella typhimurium, UniProt P30878); assay: MelBSt extraction/solubilization and thermal stability, SDS-PAGE and Western blotting
T1 construct: made in house; host or cells: E. coli DW2 (ΔmelB and ΔlacZY), plasmid pK95ΔAHB/WT MelBSt/CH10
Protocol: Specifically, Salmonella typhimurium MelBSt (melibiose permease) having a 10 His tag at the C-terminus was expressed in E. coli DW2 cells (ΔmelB and ΔlacZY) using a pK95ΔAHB/WT MelBSt/CH10 plasmid. Cell growth and membrane preparation were carried out according to the methods disclosed in the paper written by A. S. Ethayathulla et al. (Nat. Commun. 2014, 5, 3009). A protein assay was performed using a Micro BCA kit (Thermo Scientific, Rockford, Ill.). MelBSt stability in VEGs or DDM was evaluated using the protocol disclosed in Nat. Methods 2010, 7, 1003-1008, written by P. S. Chae et al. A MelBSt-containing membrane sample (the final protein concentration was 10 mg/mL) was incubated in a solubilization buffer containing 1.5% (w/v) DDM or VEGs (50 mM sodium phosphate, pH 7.5, 200 mM NaCl, 10% glycerol, 20 mM melibiose) at two different temperatures (0 and 23° C.) for 90 minutes. To remove an insoluble material, ultracentrifugation was performed using a Beckman Optima™ MAX ultracentrifuge equipped with a TLA-100 rotor at 355,590 g and 4° C. for 30 minutes. […] The loaded samples were analyzed by SDS-15% PAGE, and then visualized by immunoblotting with a Penta-His-HRP antibody (Qiagen, Germantown, Md.).
To assess the thermal stability of MelBSt in various amphipathic molecules, MelBSt extracted with individual amphipathic molecules at 23° C. was subjected to additional thermal treatment at three different temperature (45, 55 and 65° C.) and ultracentrifugation, followed by SDS-15% PAGE and Western blotting. MelBSt was detected using a SuperSignalWest Pico chemiluminescent substrate by an ImageQuant LAS 4000 Biomolecular Imager (GE Healthcare Life Science).

[2] = Hydrodynamic radius of micelles by dynamic light scattering (DLS); type: physicochemical; conditions: at 1.0 wt %
Protocol: A method of measuring the radius of a micelle is not particularly limited, but may be a method well known in the art, for example, dynamic light scattering (DLS).
(§1) To identify the properties of VEGs synthesized according to the synthetic methods of Preparation Examples 1 to […] molecular weights (M.W.) and critical micellar concentrations (CMCs) of VEGs, and the hydrodynamic radii (Rh) of formed micelles were measured.
(§2) Specifically, the CMCs were measured using hydrophobic fluorescence staining and diphenylhexatriene (DPH), and the hydrodynamic radii (Rh) of the micelles formed by each formulation were measured by dynamic light scattering (DLS).

[3] = Critical micelle concentration by hydrophobic fluorescence staining with diphenylhexatriene (DPH); type: physicochemical; conditions: aqueous solution
Protocol: A method of measuring CMC is not particularly limited, and may be a method widely known in the art, for example, fluorescent staining using diphenylhex riene (DPH).
as §1, §2

UapA [4] = biological target: T2, UapA (Emericella nidulans, UniProt Q07307, G411V); assay: UapA thermal stability, CPM assay; set-up: made in house; host or cells: Saccharomyces cerevisiae FGY217 membranes; conditions: CMC+0.2 wt %, 40° C. for 120 minutes
Protocol: UapAG411VΔ1-11 (hereinafter, referred to as “UapA”) was expressed in a Saccharomyces cerevisiae FGY217 strain by GFP fusion, and isolated into a sample buffer (20 mM Tris (pH 7.5), 150 mM NaCl, 0.03% DDM, 1 mM xanthine), which was performed according to the method disclosed in the paper written by J. Leung et al. (Mol. Menthr. Biol. 2013, 30, 32-42). The protein was concentrated to be approximately 10 mg/ml using a 100 kDa molecular weight cutoff filter (Millipore). The protein was diluted 1:150 with a buffer containing DDM, VEG (VEG-1, VEG-2, VEG-3, VEG-4 or VEG-5) or LMNG at CMC+0.2 wt % in Greiner 96. CPM dye (Invitrogen) stored in DMSO (Sigma) was diluted with a dye buffer (20 mM Tris (pH 7.5), 150 mM NaCl, 0.03% DDM, 5 mM EDTA), and 3 μL of the diluted dye was added to an individual protein sample. The reaction mixture was treated at a constant temperature of 40° C. for 120 minutes. A fluorescence emission intensity was monitored using a microplate spectrofluorometer set to excitation and emission wavelengths of 387 and 463 nm, respectively. The maximum fluorescence value was used to calculate the percentage of a protein folded during incubation. The relative amount of the folded protein was plotted over time using GraphPad Prism.

β2AR = biological target: T3, β2AR (Homo sapiens, UniProt P07550); assay: β2AR stability, [3H]-dihydroalprenolol (DHA) ligand binding; conditions: CMC+0.2 wt %, 10 days at room temperature
T3 construct: made in house; host or cells: Sf9 insect cells, baculovirus
Protocol: A receptor was expressed in Sf9 insect cells infected with Baculovirus and solubilized in 1% DDM. The DDM-solubilized receptor was purified by alprenolol-sepharose in the presence of 0.01% cholesteryl succinate (CHS). β2AR purified by DDM was diluted with a buffer containing DDM or VEGs (VEG-1, VEG-2, VEG-3 and VEG-5) to reach the final concentration of CMC+0.2 wt %. β2AR solubilized in each compound was stored for 10 days at room temperature, and the ligand binding ability of the receptor was measured at regular intervals by incubating the receptor with 10 nM radioactive [^3H]-dihydroalprenolol (DHA) for 30 minutes at room temperature. The mixture was loaded into a G-50 column, and a supernatant was collected using a certain amount of binding buffer (supplemented with […] pH 7.5, 100 mM NaCl, 0.5 mg/ml BSA). In addition, a 15 ml scintillation fluid was added. Receptor-binding [^3H]-DHA was measured using a scintillation counter (Beckman).

UapA [5] = biological target: T2, UapA; assay: UapA extraction and thermal stability by fluorescence size exclusion chromatography (FSEC); set-up: made in house; conditions: for UapA integrity after thermal treatment (FSEC): 45° C. for 10 minutes; for Ability to extract and solubilize UapA (FSEC): before thermal treatment, 60 minutes on ice
Protocol: The membrane containing UapA was resuspended in a pH 8.0 PBS buffer containing 10 mM imidazole, 150 mM NaCl and 10% glycerol, and a protein concentration was measured. The membrane was adjusted to a concentration of 1 mg/ml, and a 1 ml aliquot was incubated for 60 minutes with each of 1.0 mL of DDM, LMNG, VEG-3 and VEG-5, on ice under stirring. A 100 uL aliquot was obtained from each tube and subjected to ultracentrifugation for 10 minutes at 150,000 g, and then fluorescent SEC (FSEC) was performed on each sample. The remaining soluble fractions were incubated for 10 minutes at 45° C. The thermally-treated samples were applied to FSEC to monitor the integrity of a transporter. FSEC was performed using a Superose6 column (GE Healthcare) equilibrated with a buffer containing an appropriate preparation (DDM, LMNG, VEG-3 or VEG-5).

β2AR-Gs complex [6] = biological target: T4, β2AR-Gs complex (Homo sapiens, UniProt P07550); conditions: DDM-purified complex, previous study; cited from earlier work
T4 construct: made in house

β2AR-Gs complex [7] = biological target: T4, β2AR-Gs complex; conditions: complex purified by DDM, previous study; cited from earlier work
[8] = 1.5 wt %, extracted at 23° C., then 55° C.

T2 sequence (Q07307 12-574 G411V): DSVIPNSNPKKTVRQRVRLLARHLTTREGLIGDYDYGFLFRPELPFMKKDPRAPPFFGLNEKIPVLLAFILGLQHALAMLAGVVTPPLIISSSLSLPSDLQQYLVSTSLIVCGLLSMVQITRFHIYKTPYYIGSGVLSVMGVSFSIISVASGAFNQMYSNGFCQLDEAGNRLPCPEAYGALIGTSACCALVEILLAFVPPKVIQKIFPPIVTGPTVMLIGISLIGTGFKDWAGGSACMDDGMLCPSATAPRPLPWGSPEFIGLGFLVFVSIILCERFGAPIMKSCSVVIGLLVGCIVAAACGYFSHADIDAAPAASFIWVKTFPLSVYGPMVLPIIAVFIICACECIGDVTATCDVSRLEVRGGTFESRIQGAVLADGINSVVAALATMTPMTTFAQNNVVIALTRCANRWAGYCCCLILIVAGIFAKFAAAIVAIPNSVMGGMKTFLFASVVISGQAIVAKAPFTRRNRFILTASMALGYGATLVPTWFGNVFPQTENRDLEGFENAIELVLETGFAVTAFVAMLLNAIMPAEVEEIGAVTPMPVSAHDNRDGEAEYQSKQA
T1 sequence (P30878 whole entry): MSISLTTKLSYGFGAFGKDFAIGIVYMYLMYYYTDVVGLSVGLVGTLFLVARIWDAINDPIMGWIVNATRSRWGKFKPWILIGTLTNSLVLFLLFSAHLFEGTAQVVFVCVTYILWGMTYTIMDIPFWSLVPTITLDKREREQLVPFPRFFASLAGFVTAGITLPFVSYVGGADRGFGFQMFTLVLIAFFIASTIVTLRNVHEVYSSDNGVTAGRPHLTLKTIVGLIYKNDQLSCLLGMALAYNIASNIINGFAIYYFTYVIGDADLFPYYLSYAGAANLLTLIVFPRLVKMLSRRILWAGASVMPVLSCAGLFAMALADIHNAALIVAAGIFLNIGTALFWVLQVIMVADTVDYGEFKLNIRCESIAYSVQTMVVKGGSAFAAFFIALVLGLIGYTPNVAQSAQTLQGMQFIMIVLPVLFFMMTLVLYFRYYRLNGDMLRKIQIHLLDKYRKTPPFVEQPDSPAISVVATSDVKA
T3 sequence (P07550 whole entry): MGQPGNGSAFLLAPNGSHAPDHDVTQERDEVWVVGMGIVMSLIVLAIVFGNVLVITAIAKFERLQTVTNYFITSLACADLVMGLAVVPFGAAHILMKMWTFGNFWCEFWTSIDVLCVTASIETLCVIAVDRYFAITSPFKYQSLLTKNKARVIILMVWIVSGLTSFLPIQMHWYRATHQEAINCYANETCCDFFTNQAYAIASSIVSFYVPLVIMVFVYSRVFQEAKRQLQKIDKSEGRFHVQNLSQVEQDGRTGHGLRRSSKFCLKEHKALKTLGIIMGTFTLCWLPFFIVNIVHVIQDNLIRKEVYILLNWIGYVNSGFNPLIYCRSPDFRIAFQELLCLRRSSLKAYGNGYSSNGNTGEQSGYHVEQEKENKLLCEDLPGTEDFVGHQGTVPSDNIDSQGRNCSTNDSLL
T4 sequence (P07550 whole entry): as above
T4 sequence (P63092 whole entry partner): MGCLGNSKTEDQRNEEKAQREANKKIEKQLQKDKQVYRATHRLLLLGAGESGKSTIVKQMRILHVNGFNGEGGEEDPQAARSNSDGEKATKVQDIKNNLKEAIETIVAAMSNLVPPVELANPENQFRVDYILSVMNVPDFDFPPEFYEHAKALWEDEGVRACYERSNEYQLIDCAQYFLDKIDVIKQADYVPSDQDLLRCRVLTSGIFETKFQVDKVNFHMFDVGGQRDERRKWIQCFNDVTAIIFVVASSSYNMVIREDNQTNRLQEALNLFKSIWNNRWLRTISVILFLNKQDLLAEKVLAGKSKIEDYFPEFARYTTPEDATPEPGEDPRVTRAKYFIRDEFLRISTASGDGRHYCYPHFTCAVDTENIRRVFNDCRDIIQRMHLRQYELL
T4 sequence (P62873 whole entry partner): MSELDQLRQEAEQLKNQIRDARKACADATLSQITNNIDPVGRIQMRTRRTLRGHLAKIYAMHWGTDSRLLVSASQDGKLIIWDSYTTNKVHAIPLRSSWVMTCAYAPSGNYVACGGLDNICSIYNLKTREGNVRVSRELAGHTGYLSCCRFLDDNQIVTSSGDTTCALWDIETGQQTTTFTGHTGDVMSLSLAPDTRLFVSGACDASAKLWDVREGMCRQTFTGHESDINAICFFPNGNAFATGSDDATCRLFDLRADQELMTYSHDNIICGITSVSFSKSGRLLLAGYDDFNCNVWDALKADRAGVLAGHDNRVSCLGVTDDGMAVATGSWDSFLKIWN
T4 sequence (P59768 2-68 partner limits assumed): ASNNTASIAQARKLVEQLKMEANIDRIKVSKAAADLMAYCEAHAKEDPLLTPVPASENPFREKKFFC

| Compound | MelBSt solubilization efficiency [1, 8] | MelBSt solubilization ability ([1]; 1.5 wt %, extracted at 23° C., then 65° C.) | MelBSt transporter solubilization ability in the thermal stability experiment ([1]; elevated temperatures (overall)) | Rh (nm), hydrodynamic radius of micelles [2] | CMC [3] | CMC (wt %) [3] | Ability to maintain UapA in a structurally stable state (CPM assay) (UapA [4]) | Long-term β2AR activity ([3H]-DHA binding) (β2AR) | UapA integrity after thermal treatment (FSEC) (UapA [5]) | Ability to extract and solubilize UapA (FSEC) (UapA [5]) | Homogeneity of β2AR-Gs complex particles (EM) (β2AR-Gs complex [6]) | Integrity of the purified β2AR-Gs complex (β2AR-Gs complex [7]) | MelBSt extraction/solubilization efficiency from the cell membrane ([1]; 1.5 wt % detergent, 0° C. and 23° C., 90 minutes) | MelBSt solubilization efficiency ([1]; 1.5 wt %, extracted at 23° C., then 45° C.) |
| --- | --- | --- | --- | --- | --- | --- | --- | --- | --- | --- | --- | --- | --- | --- |
| Cc1c(C)c2c(c(C)c1OCCC(CO[C@@H]1OC(CO)[C@@H](O[C@H]3OC(CO)[C@@H](O)[C@H](O)C3O)[C@H](O)C1O)CO[C@@H]1OC(CO)[C@@H](O[C@H]3OC(CO)[C@@H](O)[C@H](O)C3O)[C@H](O)C1O)CCC(C)(CCCC(C)CCCC(C)CCCC(C)C)O2 (stereo partly shown) [VEG-4] | remained intact | very excellent protein solubilization ability | higher transporter solubilization ability than DDM | 5.1 ± 0.1 nm | ~0.003 mM | ~0.0003 wt % |  |  |  |  |  |  |  |  |
| Cc1c(C)c2c(c(C)c1O[C@@H]1OC(CO[C@@H]3OC(CO)[C@@H](O)[C@H](O)C3O)[C@@H](O[C@@H]3OC(CO)[C@@H](O)[C@H](O)C3O)[C@H](O[C@@H]3OC(CO)[C@@H](O)[C@H](O)C3O)C1O[C@@H]1OC(CO)[C@@H](O)[C@H](O)C1O)CCC(C)(CCCC(C)CCCC(C)CCCC(C)C)O2 (stereo partly shown) [VEG-5] | remained intact |  |  | 3.9 ± 0.1 nm | ~0.002 mM | ~0.0002 wt % | excellent ability to maintain UapA in a structurally stable state | rapid loss of activity over time | maintained protein integrity | LMNG and DDM were superior to VEG-3 and VEG-5 |  |  |  |  |
| Cc1c(C)c2c(c(C)c1OCCOCC(CO[C@@H]1OC(CO)[C@@H](O)[C@H](O)C1O)(CO[C@@H]1OC(CO)[C@@H](O)[C@H](O)C1O)CO[C@@H]1OC(CO)[C@@H](O)[C@H](O)C1O)CCC(C)(CCCC(C)CCCC(C)CCCC(C)C)O2 (stereo partly shown) [VEG-2] |  |  |  | 4.7 ± 0.1 nm | ~0.003 mM | ~0.0003 wt % |  | consistently maintained during incubation for 10 days |  |  |  |  |  |  |
| CCCCCCCCCCCCO[C@@H]1O[C@H](CO)[C@@H](O[C@H]2O[C@H](CO)[C@@H](O)[C@H](O)[C@H]2O)[C@H](O)[C@H]1O [DDM, n-dodecyl-β-D-maltopyranoside, reference compound] | significant decrease |  |  | 3.4 ± 0.0 nm | 0.17 mM and 0.170 mM | 0.0087 wt % |  | rapid loss of activity over time | considerably degraded | superior to VEG-3 and VEG-5 | aggregation of particles | significant dissociation between the receptor and Gs protein even after 2 day-incubation | more efficient; also recorded: higher protein extraction efficiency than VEGs | almost similar efficiencies |
| CCCCCCCCCCC(CCCCCCCCCC)(CO[C@@H]1O[C@H](CO)[C@@H](O[C@H]2O[C@H](CO)[C@@H](O)[C@H](O)[C@H]2O)[C@H](O)[C@H]1O)CO[C@@H]1O[C@H](CO)[C@@H](O[C@H]2O[C@H](CO)[C@@H](O)[C@H](O)[C@H]2O)[C@H](O)[C@H]1O [LMNG, reference compound] |  |  |  |  |  |  |  |  | considerably degraded | superior to VEG-3 and VEG-5 |  |  |  |  |
| Cc1c(C)c2c(c(C)c1OCC(CO[C@@H]1OC(CO)[C@@H](O)[C@H](O)C1O)(CO[C@@H]1OC(CO)[C@@H](O)[C@H](O)C1O)CO[C@@H]1OC(CO)[C@@H](O)[C@H](O)C1O)CCC(C)(CCCC(C)CCCC(C)CCCC(C)C)O2 (stereo partly shown) [VEG-1] |  |  |  | 4.2 ± 0.1 nm | ~0.002 mM | ~0.0002 wt % |  |  |  |  |  |  |  |  |
